Laboratory results: US20240287135A1, “ANTIMICROBIAL PEPTIDE OR PEPTIDE DERIVATIVE, SUBSTITUTE, AND COMPOSITION THEREOF, AND PREPARATION METHOD AND APPLICATION OF COMPOSITION” (QC BIO-TECHNOLOGY (SHENZHEN) CO., LTD., priority 2021, published 2024)
Ends that are not written are not given here.

Tests used:
[1] = tested on: K562 cell line (leukemia cells); assay: Killing of the AMP for leukemia cells; format: cell-based; details: 20 μL of 1 μg/mL AMP, 10^5 cells, 10 min
Protocol: K562 cell line (leukemia cells) was taken. 20 μL of a solution of 1 μg/mL AMP of SEQ ID NO: 17 was mixed with 10^5 cells to allow a reaction for 10 min, and a resulting mixture was centrifuged at 1,000 rpm for 3 min.

E. coli = E. coli inhibition test (colony count on agarose plate); format: cell-based, Escherichia coli; details: for number of E. coli clones on plate: AMP 200 μg/mL mixed 1:1 with bacterial solution, 15 min room temperature, cultivated 37 °C 12 h, control 251 clones
Protocol: The 39 AMPs synthesized in Examples 1 to 39 each were subjected to an E. coli inhibition test. 30 μL of an E. coli bacterial solution was taken and mixed with 30 μL of each of the AMPs (concentration: 200 μg/mL), and 30 μL of a PBS isotonic solution was adopted to prepare a control; a reaction was allowed at room temperature for 15 min, and a resulting bacterial solution was evenly coated on an agarose plate and cultivated at 37 °C for 12 h; and the number of E. coli bacteria on each plate was counted and recorded.
In order to make the experimental results clearer, 6 experimental samples were taken for control analysis.

oral bacteria = assay: Inhibition on oral bacteria (mouthwash from the elderly, sheep blood agar); format: cell-based; details: 30 min, anaerobic 37 °C 4 d
Protocol: Mouthwash was taken from the elderly and divided into 4 parts of equal amounts, and the 4 parts each were mixed with a solution of 2 mg/mL SEQ ID NO: 8 at different amounts for 30 min and then evenly coated on plates with sheep blood agar, where A: PBS (control), B: 2 μL, C: 10 μL, and D: 20 μL; and resulting mixtures each were anaerobically cultivated at 37 °C for 4 d, and the number of colonies on each plate was observed.

RNA viruses = assay: Killing of the AMP for RNA viruses (RT-PCR after infection of 293T); format: cell-based; details: supernatant mixed with equal amount of 200 μg/mL AMP for 15 min; 293T infected 12 h; control 1.7×10^7
Protocol: The plasmids pNL4.3Δ, pVSV-G, p-enhancer, and lipo2000 each were used to transfect 293T, then the cells were cultivated at 37° ° C. for two days, a culture supernatant was taken and centrifuged to remove organelle impurities, and 500 μL of a cell supernatant was mixed with an equal amount of 200 μg/mL SEQ ID NO: 8 to allow a reaction for 15 min. In a control group, PBS was used instead of SEQ ID NO: 8. The filter centrifugation (Millipore Amicon Ultra-15) was used to remove the AMP, thereby eliminating a killing effect of the AMP itself on cells. A sample to be tested was used to infect the 293Tcell line, and then the cell line was cultivated at 37° C. for 12 h. The 293T cell line was recovered, and the RT-PCR method was used to determine the infection difference between live viruses for the cells. The control group and the experimental group had the same experimental environment, but the amino acid sequence of SEQ ID NO: 8 of the present application was added in the experimental group.

K562 cells = assay: Killing of the AMP for tumor cells (FCM PI kit); format: cell-based; details: 10 ng, 20 ng and 40 ng of AMP
Protocol: K562 cells were cultivated, a same amount of K562 cells was taken and mixed with 10 ng, 20 ng, and 40 ng of the AMP of SEQ ID NO: 8 to allow a reaction, and apoptotic cells were determined by a flow cytometry (FCM) PI kit.

[2] = tested on: Jurkat cell line (leukemia lymphocytes); assay: Killing of the AMP for leukemia lymphocytes; format: cell-based; details: 20 μL of 1 μg/mL AMP, 10^5 cells, 10 min
Protocol: Jurkat cell line (leukemia lymphocytes) was taken. 20 μL of a solution of 1 μg/mL AMP of SEQ ID NO: 10 was mixed with 10^5 cells to allow a reaction for 10 min, and a resulting mixture was centrifuged at 1,000 rpm for 3 min.

Human RBCs = format: cell-based; details: 20 μL of 1 μg/mL AMP, 2% RBCs, 10 min
Protocol: Human RBCs were taken. 20 μL of a solution of 1 μg/mL AMP of SEQ ID NO: 27 was mixed with 2% RBCs to allow a reaction for 10 min, and a resulting mixture was centrifuged at 1,000 rpm for 3 min.

[3] = tested on: HypG2 cell line (liver cancer cells); assay: Killing of the AMP for liver cancer cells; format: cell-based; details: 20 μL of 1 μg/mL AMP, 10^5 cells, 10 min
Protocol: HypG2 cell line (liver cancer cells) was taken. 20 μL of a solution of 1 μg/mL AMP of SEQ ID NO: 15 was mixed with 10^5 cells to allow a reaction for 10 min, and a resulting mixture was centrifuged at 1,000 rpm for 3 min.

RHAMGQMLRIMASLVLARK [SEQ ID NO: 17]
effect on leukemia cells (image) [1]: leukemia cells clump

HAMGNMLKIMASAVLVRH [SEQ ID NO: 8, HAMGNMLKIMASAVLVRH]
number of E. coli clones on plate (E. coli): 1 E. coli clones
inhibitory effect on E. coli (E. coli; AMP 200 μg/mL, 15 min, plate count (FIG. 1)): most significant inhibitory effect
growth of oral bacteria on plate (oral bacteria; B: 2 μL of 2 mg/mL solution): a small number of bacteria grew
growth of oral bacteria on plate (oral bacteria; C: 10 μL of 2 mg/mL solution): no oral bacteria grew
growth of oral bacteria on plate (oral bacteria; D: 20 μL of 2 mg/mL solution): no oral bacteria grew
active viral copy (RNA viruses): 5×10^5
cell death (apoptotic cells, FCM PI) (K562 cells): cell death was proportional to the content of the AMP

HKRAMPSIVKMIATLVLARKH (antimicrobial peptide, fully synthetic) [SEQ ID NO: 10]
effect on leukemia lymphocytes (image) [2]: leukemia lymphocytes clump, and some are broken

HKAVPNMLHIASAVLVRH (antimicrobial peptide, fully synthetic) [SEQ ID NO: 5]
number of E. coli clones on plate (E. coli): 236 E. coli clones

HKAVGNMLKIASAVLVHK (antimicrobial peptide, fully synthetic) [SEQ ID NO: 6]
number of E. coli clones on plate (E. coli): 226 E. coli clones

KAVPNMLKIMASLVLARH [SEQ ID NO: 27, KAVPNMLKIMASLVLARH]
clumping of RBCs (Human RBCs): human RBCs clump
hemolysis (Human RBCs): no obvious hemolysis

RAMPNMLRIMASLVLARKH [SEQ ID NO: 15]
effect on liver cancer cells (image) [3]: Liver cancer cells clump, and are broken and deformed

HAMPNMLRIMASAVLVKR (antimicrobial peptide, fully synthetic) [SEQ ID NO: 7]
number of E. coli clones on plate (E. coli): 216 E. coli clones
